In patent US6342504B1, “Aromatic heterocyclic derivatives as enzyme inhibitors” (priority 1994, dated 2002):

System: FeCl3-induced occlusive thrombus in rat carotid artery
Test: Rat model of FeCl3-induced platelet-dependent arterial thrombosis
Format: in vivo
Conditions: FeCl3 model of arterial thrombosis in rats
Source text: Rat Model of FeCl3-induced Platelet-dependent Arterial Thrombosis
Kurz, K. D., Main, B. W., and Sandusky, G. E., Thromb. […] In this model a platelet-rich, occlusive thrombus is formed in a segment of the rat carotid artery treated locally with a fresh solution of FeCl3 absorbed to a piece of filter paper. The FeCl3 is thought to diffuse into the treated segment of artery and cause de-endothelialization of the affected vessel surface. […] The effect of a test compound on the incidence of occlusive thrombus formation following the application of the FeCl3 is monitored by ultrasonic flowtometry and is used as the primary end point. The use of flowtometry to measure carotid artery blood flow, is a modification of the original procedure in which thermal detection of clot formation was employed. Kurz, K. D., Main, B. W., and Sandusky, G. E., Thromb.
Male Harlan Sprague Dawley rats (420-450 g) were acclimated at least 72 hours prior to use and fasted for 12 hours prior to surgery with free access to water. The animals were prepared, anesthetized with Nembutal followed by the insertion of catheters for blood pressure monitoring, drug and anesthesia delivery. The left carotid artery was isolated by making a midline cervical incision followed by blunt dissection and spreading techniques to separate a 2 cm segment of the vessel from the carotid sheath. A silk suture is inserted under the proximal and distal ends of the isolated vessel to provide clearance for the placement of a ultrasonic flow probe (Transonic) around the proximal end of the vessel. The probe is then secured with a stationary arm.
The test compound was administered as a single intravenous bolus at the doses outlined in Table 4 after placement of the flow probe and 5 minutes prior to the thrombogenic stimulus. At t=0, a 3 mm diameter piece of filter paper (Whatman #3) soaked with 10 microliters of a 35% solution of fresh FeCl3 (made up in water) was applied the segment of isolated carotid artery distal to the flow probe. Blood pressure, blood flow, heart rate, and respiration were monitored for 60 minutes.
The incidence of occlusion (defined as the attainment of zero blood flow) was recorded as the primary end point.
This allows a direct comparison of the antithrombotic efficacy of [3-[(benzylsulfonyl)amino]-2-oxo-1,2-dihydropyridyl]acetyl-L-argininal, with other antithrombotic agents which have also been evaluated in this model as described above. Table 5 lists the ED50 values for several well known anticoagulant agents in this model compared to [3-[(benzylsulfonyl)amino]-2-oxo-1,2-dihydropyridyl]acetyl-L-argininal.

**Q.** How did the “ED50 for thrombus prevention (dose that prevents complete thrombotic occlusion in 50% of animals)” value turn out when Hirulog ™ [reference compound] was run?
**A.** 3.0 mg/kg
